In patent publication US4512992A, “Treatment with dialkoxy pyridopyrimidine compounds” (Burroughs Wellcome Co., priority 1981, dated 1985):

Legend:
[1] = biological target: Histamine N-Methyltransferase (HMT) (Homo sapiens, UniProt P50135); assay: Inhibition of histamine N-methyltransferase (HMT); type: biochemical
Method: Inhibition of Histamine N-Methyltransferase
The effect of the test compounds used in Example 2 against HMT was determined. An inhibition of less than 20% was considered acceptable.

[2] = biological target: T1, mammalian dihydrofolate reductase (DHFR) (Rattus norvegicus, UniProt Q920D2); assay: Inhibition of mammalian dihydrofolate reductase (DHFR) partially purified from rat liver; type: biochemical
T1 construct: DHFR partially purified from rat liver; from tissue; host or cells: rat liver
T1 sequence (Q920D2 1-187): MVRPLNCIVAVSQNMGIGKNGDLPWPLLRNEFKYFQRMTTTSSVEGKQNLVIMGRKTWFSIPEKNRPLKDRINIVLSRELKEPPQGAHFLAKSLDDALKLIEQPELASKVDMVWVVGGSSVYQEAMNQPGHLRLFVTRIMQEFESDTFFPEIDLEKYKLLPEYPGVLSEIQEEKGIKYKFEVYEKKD
Method: Inhibition of Mammalian Dihydrofolate Reductase (DHFR) by […]-5-methyl-6-benzylpyrido(2,3-d)pyrimidines
The inhibitory effect of the test compounds against DHFR partially purified from rat liver was determined. An IC50 of 5×10^-8 M or less is considered significant potency, an IC50 of 1×10^-8 M or less being particularly significant potency.

Histamine N-Methyltransferase (HMT), sequence (P50135 whole entry, species assumed): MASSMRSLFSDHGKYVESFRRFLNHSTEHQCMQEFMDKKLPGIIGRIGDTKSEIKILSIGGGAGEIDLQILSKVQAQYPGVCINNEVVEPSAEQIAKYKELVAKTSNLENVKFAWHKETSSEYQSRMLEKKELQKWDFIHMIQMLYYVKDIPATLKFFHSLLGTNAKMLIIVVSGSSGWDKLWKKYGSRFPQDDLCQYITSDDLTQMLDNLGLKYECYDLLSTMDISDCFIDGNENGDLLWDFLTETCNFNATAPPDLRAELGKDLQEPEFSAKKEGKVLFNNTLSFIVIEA

COc1ccc(Cc2cnc3nc(N)nc(N)c3c2C)cc1OC [2,4-Diamino-6-(3,4-dimethoxybenzyl)-5-methylpyrido[2,3-d]pyrimidine]
inhibitory activity against HMT (in words) [1]: acceptably low inhibitory activity against HMT | inhibitor of mammalian DHFR (in words) [2]: very potent inhibitor of mammalian DHFR
